US20250275540A1, “USE OF PROTOPORPHYRINOGEN OXIDASE” (BEIJING DABEINONG BIOTECHNOLOGY CO., LTD., priority 2022, published 2025)

Tested on: transgenic Arabidopsis thaliana T1 plants
Assay: Detection of the herbicide tolerance of the transgenic Arabidopsis thaliana plants
Format: in vivo
Conditions: for The grade of pesticide damage/plant: 0 / The grade of pesticide damage/plant: 1 / The grade of pesticide damage/plant: 2 / The grade of pesticide damage/plant: 3: 7 DAT
From the text: The transformed Arabidopsis thaliana T1 plants were initially selected using glufosinate herbicide. The Arabidopsis thaliana T1 plants (PPOA-01) into which the PPOA-01 nucleotide sequence was introduced, the Arabidopsis thaliana T1 plants (PPOB-01) into which the PPOB-01 nucleotide sequence was introduced, the Arabidopsis thaliana T1 plants (PPOC-01) into which the PPOC-01 nucleotide sequence was introduced, the Arabidopsis thaliana T1 plants (PPOD-01) into which the PPOD-01 nucleotide sequence was introduced, the Arabidopsis thaliana T1 plants (PPOE-01) into which the PPOE-01 nucleotide sequence was introduced, the Arabidopsis thaliana T1 plants (PPOF-01) into which the PPOF-01 nucleotide sequence was introduced, the Arabidopsis thaliana T1 plants (PPO-AP-01) into which the PPO-AP-01 nucleotide sequence was introduced, and the Arabidopsis thaliana T1 plants (control vector) into which the control vector was introduced, the wild-type Arabidopsis thaliana plants (CK) (with 24 plants being included in each genotype) (18 days after sowing) were sprayed with saflufenacil at three concentrations (25 g ai/ha (one-fold field concentration, 1×), 100 g ai/ha (four-fold field concentration, 4×), and 0 g ai/ha (water, 0×)), oxyfluorfen at three concentrations (180 g ai/ha (one-fold field concentration, 1×), 720 g ai/ha (four-fold field concentration, 4×), and 0 g ai/ha (water, 0×)), and flumioxazin at three concentrations (60 g ai/ha (one-fold field concentration, 1×), 240 g ai/ha (four-fold field concentration, 4×), and 0 g ai/ha (water, 0×) to determine the tolerance of Arabidopsis thaliana to the herbicides. After 7 days of spraying (7 DAT), the damage level of each plant caused by the herbicide was evaluated according to the average of the damage levels (%) of plants (the average of the damage levels (%) of plants=the injured leaf area/the total leaf area×100%), i.e., the grade of pesticide damage: grade 0 means that the growth status of plants is essentially consistent with those sprayed with the blank solvent (water); grade 1 means that the average of the damage levels of plants is less than 10%; grade 2 means that the average of the damage levels of plants is greater than 10%; and grade 3 means that the average of the damage levels of plants is 100%. The plants having a growth status falling within grades 0 and 1 are classified as highly resistant plants; those having a growth status falling within grade 2 are classified as poorly resistant plants; and those having a growth status falling within grade 3 are classified as non-resistant plants.

[1] = genotype Control vector, 25 g ai/ha
[2] = genotype Control vector, 100 g ai/ha
[3] = genotype PPO-AP-01, 100 g ai/ha

CC(C)N(C)S(=O)(=O)NC(=O)c1cc(-n2c(=O)cc(C(F)(F)F)n(C)c2=O)c(F)cc1Cl [saflufenacil, N′-[2-chloro-4-fluoro-5-(3-methyl-2,6-dioxo-4-(trifluoromethyl)-3,6-dihydro-1 (2H)-pyrimidine)benzoyl]-N-isopropyl-N-methylsulfamide]
high-resistant tolerance: tolerance to the herbicide (in words) (genotypes PPOA-01 to PPOF-01, at different concentrations, compared with the control vector and CK)
no tolerance: tolerance to the herbicide (in words) (genotype PPO-AP-01, at different concentrations)
25 g ai/ha: effective dose distinguishing sensitive plants from plants having an average level of resistance (Arabidopsis thaliana)
24 plant: The grade of pesticide damage/plant: 3 (genotype CK, 25 g ai/ha) | The grade of pesticide damage/plant: 3 (genotype CK, 100 g ai/ha) | The grade of pesticide damage/plant: 3 [1] | The grade of pesticide damage/plant: 3 [2] | The grade of pesticide damage/plant: 3 (genotype PPO-AP-01, 25 g ai/ha) | The grade of pesticide damage/plant: 3 [3] | The grade of pesticide damage/plant: 0 (genotype PPOA-01, 25 g ai/ha) | The grade of pesticide damage/plant: 1 (genotype PPOA-01, 100 g ai/ha) | The grade of pesticide damage/plant: 0 (genotype PPOB-01, 25 g ai/ha) | The grade of pesticide damage/plant: 1 (genotype PPOB-01, 100 g ai/ha) | The grade of pesticide damage/plant: 0 (genotype PPOC-01, 25 g ai/ha) | The grade of pesticide damage/plant: 1 (genotype PPOC-01, 100 g ai/ha) | The grade of pesticide damage/plant: 0 (genotype PPOD-01, 25 g ai/ha) | The grade of pesticide damage/plant: 1 (genotype PPOD-01, 100 g ai/ha) | The grade of pesticide damage/plant: 0 (genotype PPOE-01, 25 g ai/ha) | The grade of pesticide damage/plant: 1 (genotype PPOE-01, 100 g ai/ha) | The grade of pesticide damage/plant: 0 (genotype PPOF-01, 25 g ai/ha) | The grade of pesticide damage/plant: 1 (genotype PPOF-01, 100 g ai/ha)
0 plant: The grade of pesticide damage/plant: 0 (genotype CK, 25 g ai/ha) | The grade of pesticide damage/plant: 1 (genotype CK, 25 g ai/ha) | The grade of pesticide damage/plant: 2 (genotype CK, 25 g ai/ha) | The grade of pesticide damage/plant: 0 (genotype CK, 100 g ai/ha) | The grade of pesticide damage/plant: 1 (genotype CK, 100 g ai/ha) | The grade of pesticide damage/plant: 2 (genotype CK, 100 g ai/ha) | The grade of pesticide damage/plant: 0 [1] | The grade of pesticide damage/plant: 1 [1] | The grade of pesticide damage/plant: 2 [1] | The grade of pesticide damage/plant: 0 [2] | The grade of pesticide damage/plant: 1 [2] | The grade of pesticide damage/plant: 2 [2] | The grade of pesticide damage/plant: 0 (genotype PPO-AP-01, 25 g ai/ha) | The grade of pesticide damage/plant: 1 (genotype PPO-AP-01, 25 g ai/ha) | The grade of pesticide damage/plant: 2 (genotype PPO-AP-01, 25 g ai/ha) | The grade of pesticide damage/plant: 0 [3] | The grade of pesticide damage/plant: 1 [3] | The grade of pesticide damage/plant: 2 [3] | The grade of pesticide damage/plant: 1 (genotype PPOA-01, 25 g ai/ha) | The grade of pesticide damage/plant: 2 (genotype PPOA-01, 25 g ai/ha) | The grade of pesticide damage/plant: 3 (genotype PPOA-01, 25 g ai/ha) | The grade of pesticide damage/plant: 0 (genotype PPOA-01, 100 g ai/ha) | The grade of pesticide damage/plant: 2 (genotype PPOA-01, 100 g ai/ha) | The grade of pesticide damage/plant: 3 (genotype PPOA-01, 100 g ai/ha) | The grade of pesticide damage/plant: 1 (genotype PPOB-01, 25 g ai/ha) | The grade of pesticide damage/plant: 2 (genotype PPOB-01, 25 g ai/ha) | The grade of pesticide damage/plant: 3 (genotype PPOB-01, 25 g ai/ha) | The grade of pesticide damage/plant: 0 (genotype PPOB-01, 100 g ai/ha) | The grade of pesticide damage/plant: 2 (genotype PPOB-01, 100 g ai/ha) | The grade of pesticide damage/plant: 3 (genotype PPOB-01, 100 g ai/ha) | The grade of pesticide damage/plant: 1 (genotype PPOC-01, 25 g ai/ha) | The grade of pesticide damage/plant: 2 (genotype PPOC-01, 25 g ai/ha) | The grade of pesticide damage/plant: 3 (genotype PPOC-01, 25 g ai/ha) | The grade of pesticide damage/plant: 0 (genotype PPOC-01, 100 g ai/ha) | The grade of pesticide damage/plant: 2 (genotype PPOC-01, 100 g ai/ha) | The grade of pesticide damage/plant: 3 (genotype PPOC-01, 100 g ai/ha) | The grade of pesticide damage/plant: 1 (genotype PPOD-01, 25 g ai/ha) | The grade of pesticide damage/plant: 2 (genotype PPOD-01, 25 g ai/ha) | The grade of pesticide damage/plant: 3 (genotype PPOD-01, 25 g ai/ha) | The grade of pesticide damage/plant: 0 (genotype PPOD-01, 100 g ai/ha) | The grade of pesticide damage/plant: 2 (genotype PPOD-01, 100 g ai/ha) | The grade of pesticide damage/plant: 3 (genotype PPOD-01, 100 g ai/ha) | The grade of pesticide damage/plant: 1 (genotype PPOE-01, 25 g ai/ha) | The grade of pesticide damage/plant: 2 (genotype PPOE-01, 25 g ai/ha) | The grade of pesticide damage/plant: 3 (genotype PPOE-01, 25 g ai/ha) | The grade of pesticide damage/plant: 0 (genotype PPOE-01, 100 g ai/ha) | The grade of pesticide damage/plant: 2 (genotype PPOE-01, 100 g ai/ha) | The grade of pesticide damage/plant: 3 (genotype PPOE-01, 100 g ai/ha) | The grade of pesticide damage/plant: 1 (genotype PPOF-01, 25 g ai/ha) | The grade of pesticide damage/plant: 2 (genotype PPOF-01, 25 g ai/ha) | The grade of pesticide damage/plant: 3 (genotype PPOF-01, 25 g ai/ha) | The grade of pesticide damage/plant: 0 (genotype PPOF-01, 100 g ai/ha) | The grade of pesticide damage/plant: 2 (genotype PPOF-01, 100 g ai/ha) | The grade of pesticide damage/plant: 3 (genotype PPOF-01, 100 g ai/ha)
